The results in this text go back to ChEMBL document CHEMBL1147443, “Regioselective oxidation of 2-amino-3-aroyl-4,5-dialkylthiophenes by DMSO” (Bioorg Med Chem Lett, 2004).

The first data set in a line: Half life by its biological oxidation in presence of human liver microsomes. Format: ADME, Microsome.
Details: not given
For orientation: Liver microsomes are vesicles of endoplasmic reticulum, rich in cytochrome P450 enzymes.
As a reminder, the half-life is how long it takes for the measured level to halve. As for `Cc1sc(N)c(C(=O)c2cccc(C(F)(F)F)c2)c1C`, the half-life is under 1 min.

On to `Nc1sc2c(c1C(=O)c1ccc3ccccc3c1)CCCC2`, for which the half-life is under 1 min.

Regarding `Nc1sc2c(c1C(=O)c1ccc(-c3ccccc3)cc1)CCCC2`, the half-life was under 1 min.

A short description of the next data set: Half life by its biological oxidation in presence of horse radish […]. The format is ADME. As to conditions: horseradish, horseradish peroxidase.
For the compound `Cc1sc(N)c(C(=O)c2cccc(C(F)(F)F)c2)c1C`, the half-life is under 1 min.

Consider `Nc1sc2c(c1C(=O)c1ccc3ccccc3c1)CCCC2`, for which the half-life is 1.33 min.

Regarding `Nc1sc2c(c1C(=O)c1ccc(-c3ccccc3)cc1)CCCC2`, the half-life is under 1 min.
